Where two headings read alike, the source gives them in different places.

The target in one series is T1, R120E hDAAO variant (Homo sapiens, UniProt P14920, R120E).
T1 construct: His-tag (N); made in house; host or cells: E. coli BL21 (DE3) Star
The series is described as follows: FAD and ligand binding by quenching of protein fluorescence, R120E hDAAO. The procedure: (§1) Protein fluorescence spectra were recorded between 300 and 400 nm, with excitation at 280 nm using a Jasco FP-750 instrument (excitation slit of 10 nm; emission slit of 5 nm) in 10 mM potassium phosphate, pH 8.0, 1% (v/v) glycerol, 5 mM 2-mercaptoethanol, […]

For another series, the target named is T2, R120L hDAAO variant (Homo sapiens, UniProt P14920, R120L).
T2 construct: His-tag (N); made in house; host or cells: E. coli BL21 (DE3) Star
The series is described as follows: FAD and ligand binding by quenching of protein fluorescence, R120L hDAAO. The procedure:
as §1

The next series has as its target wild-type hDAAO. Conditions: ref Murtas et al. (2017), cited from earlier work.
The subject of another series is W209R hDAAO. Also noted: method as in Cappelletti et al., 2015. Conditions: compared with wild-type hDAAO; ref Cappelletti et al., 2015; cited from earlier work.
A short description of series [1]: Standard DAAO activity assay of purified hDAAO variants (oxygen electrode, 28 mM D-alanine). It is filed as biochemical. Conditions: pH 8.5, 25°C.
For the next series, the system named is U87 glioblastoma cells. Kind of series: Confocal analysis of cellular distribution of EYFP-hDAAO variants in transiently transfected U87 cells. The series is classed as cell-based, human. The procedure:
Human U87 glioblastoma cells (ATCC) were cultured in DMEM supplemented with 10% fetal bovine serum, 1 mM sodium pyruvate, 2 mM L-glutamine, 1% non-essential amino acids, 1% penicillin/streptomycin, and 1% amphotericin B (Euroclone), at 37°C in 5% CO2. The cells were transfected either with the pEYFP-hDAAO-C3 construct (for the expression of the wild-type enzyme downstream of the enhanced yellow fluorescent protein, EYFP) (Sacchi et al., [2008], [2011]), the pEYFP-hDAAO(R120L)-C3, or the pEYFP-hDAAO(R120E)-C3 expression vectors. The latter constructs were obtained by mutagenesis using the QuikChange Lightning Site-Directed Mutagenesis Kit (Agilent), and the following primers: 5′-[…]-3′ and 5′-[…]-3′ for the R120E substitution, and 5-[…]-3′ and 5′-[…]-3′ for the R120L substitution.
For transient transfection, 2 ×10^4 cells were seeded into eight-well chamber slides (Sarstedt). At 24 h after seeding, cells were transfected with 2 μg plasmid DNA using a 4:1 ratio of FuGENE transfection reagent (Promega) to DNA. Then, 12.5 μL of transfection mix was added to 500 μL medium per well. Protein expression levels were monitored by using a fluorescence microscope (Olympus IX51) equipped with a FITC filter and by Western blot analysis using an anti-hDAAO antibody (Davids Biotechnologie) (Sacchi et al., [2008], [2011]).
At 24, 48, and 72 h after transfection, cells were washed twice with PBS and fixed with ice-cold 4% p-formaldehyde and 4% sucrose for 10 min at room temperature. After fixation, cells were washed twice with PBS and blocked by incubation in PBS supplemented with 0.2% Triton X-100 and 4% horse serum for 30 min at room temperature. Peroxisomes were stained using rabbit polyclonal anti-PMP70 (peroxisomal membrane protein 70, Sigma), diluted 1:500 in PBS, 0.1% Triton X-100, and 4% horse serum overnight at 4°C; they were then washed twice in PBS and 1% horse serum and incubated for 1 h at room temperature (light protected) with goat anti-rabbit Dylight 550 secondary antibodies (Abcam) diluted 1:400 in PBS, 0.1% Triton X-100, and 1.5% horse serum. Cells were then extensively washed in PBS and nuclei were stained with DRAQ5™ (Thermo Scientific) and diluted 1:500 in PBS for 10 min at room temperature in the dark. Cells were washed three times with PBS and stored in PBS at 4°C until imaging.
Immunostained cells were imaged using an inverted laser scanning confocal microscope (TCS SP5, Leica Microsystems), equipped with a 63.0 ×1.25 NA plan apochromatic oil immersion objective. Confocal image stacks were acquired using the Leica TCS software with a sequential mode to avoid interference between each channel and without saturating any pixel. Cells in 10–15 non-magnified optical fields were analyzed for each condition (i.e., different EYFP-hDAAO expression constructs at different times after transfection). The fluorescence signal corresponding to the overexpressed EYFP-hDAAO variants was monitored by excitation at 514 nm (yellow channel); the peroxisomal and nuclear cellular compartments were imaged by excitation at 546 nm (red channel) and 647 nm (blue channel), respectively.
U87 glioblastoma cells were transiently transfected with a pEYFP-hDAAO-C3 plasmid encoding for EYFP-hDAAO chimeric proteins harboring R, E, or L at position 120 of the flavoenzyme. […] A similar amount of transfected cells (expressing EYFP-hDAAO protein) was obtained for all three constructs (Table 4). The percentage of cells showing a cytosolic, peroxisomal, and nuclear localization of the flavoenzyme was determined by comparing the yellow fluorescence signal of EYFP-hDAAO variants with those of the markers PMP-70 (for peroxisomes) and DRAQ5™ dye (for nuclei, Figure 5). The amount of cytosolic wild-type EYFP-hDAAO decreased with time after transfection (28% of the signal is cytosolic at 72 h vs. 94% at 24 h), as did the amount of nuclear signal (Table 4 and Figure 6). […]

Details of series [2]: method as in Molla et al. (2006) and Caldinelli et al. (2009). Conditions: 28 mM D-alanine, pH 8.5, 25°C; ref Molla et al. (2006) and Caldinelli et al. (2009); cited from earlier work.
Where [3] appears, read: apoprotein, no benzoate, read-out: FAD Kd, free form, first saturation phase.
The mark [4] stands for this setting: apoprotein, no benzoate, read-out: FAD Kd, free form, second saturation phase.
Setting [5] is: in presence of 70 μM benzoate, read-out: FAD Kd, benzoate complex, first saturation phase.
Setting [6] is: in presence of 70 μM benzoate, read-out: FAD Kd, benzoate complex, second saturation phase.

T1 sequence (P14920 whole entry R120E): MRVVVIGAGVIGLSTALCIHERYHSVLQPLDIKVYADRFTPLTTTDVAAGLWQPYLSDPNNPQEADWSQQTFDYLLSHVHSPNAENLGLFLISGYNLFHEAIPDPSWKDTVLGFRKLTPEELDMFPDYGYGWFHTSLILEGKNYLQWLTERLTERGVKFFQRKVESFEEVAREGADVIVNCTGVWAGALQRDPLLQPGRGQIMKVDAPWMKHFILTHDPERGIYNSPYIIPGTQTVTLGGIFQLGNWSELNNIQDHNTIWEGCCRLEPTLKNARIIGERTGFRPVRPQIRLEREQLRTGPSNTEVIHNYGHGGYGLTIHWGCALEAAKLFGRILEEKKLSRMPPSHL
T2 sequence (P14920 whole entry R120L): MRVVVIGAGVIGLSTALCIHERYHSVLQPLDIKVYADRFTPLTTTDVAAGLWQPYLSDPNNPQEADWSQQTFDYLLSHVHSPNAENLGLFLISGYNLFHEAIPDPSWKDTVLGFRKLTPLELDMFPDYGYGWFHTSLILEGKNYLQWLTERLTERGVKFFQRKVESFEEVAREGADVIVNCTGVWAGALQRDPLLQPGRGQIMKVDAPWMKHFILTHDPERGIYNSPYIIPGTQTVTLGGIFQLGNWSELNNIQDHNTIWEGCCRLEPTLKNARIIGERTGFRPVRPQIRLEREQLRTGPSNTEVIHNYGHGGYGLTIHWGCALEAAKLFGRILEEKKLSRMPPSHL

With `Cc1cc2nc3c(=O)[nH]c(=O)nc-3n(C[C@H](O)[C@H](O)[C@H](O)COP(=O)(O)OP(=O)(O)OC[C@H]3O[C@@H](n4cnc5c(N)ncnc54)[C@H](O)[C@@H]3O)c2cc1C` [FAD], the “amplitude of fluorescence change, FAD binding, free form, first phase” value at R120E hDAAO variant (apoprotein, no benzoate) was determined as 65%; on R120L hDAAO variant (apoprotein, no benzoate), 60%. Moreover, the “amplitude of fluorescence change, FAD binding, free form, second phase” value came to 35% on R120E hDAAO variant (apoprotein, no benzoate) and 40% on R120L hDAAO variant (apoprotein, no benzoate). Also, the Kd was 50 ± 10 nM on R120E hDAAO variant (setting [3]); 32000 ± 3000 nM on R120E hDAAO variant (setting [4]); 610 ± 80 nM on R120E hDAAO variant (setting [5]); no less than 30000 nM on R120E hDAAO variant (setting [6]); 50 ± 10 nM at R120L hDAAO variant (setting [3]); 23100 ± 1000 nM on R120L hDAAO variant (setting [4]). Moreover, the Kd at R120L hDAAO variant (setting [5]) is 70 ± 10 nM; on R120L hDAAO variant (setting [6]), no less than 20000 nM; at wild-type hDAAO (setting [3]) it was 430 ± 20 nM; on wild-type hDAAO (setting [4]), no less than 30000 nM; at wild-type hDAAO (in presence of 70 μM benzoate, monophasic, read-out: FAD Kd, benzoate complex), 480 ± 20 nM. In addition, the “amplitude of fluorescence change, FAD binding, benzoate complex, first phase” value on R120E hDAAO variant (in presence of 70 μM benzoate) came out at 65%; on R120L hDAAO variant (in presence of 70 μM benzoate) it was 75%. Also, the “amplitude of fluorescence change, FAD binding, benzoate complex, second phase” value was determined as 35% at R120E hDAAO variant (in presence of 70 μM benzoate) and 25% on R120L hDAAO variant (in presence of 70 μM benzoate). Also, the “tighter FAD-binding (fold)” value in the series with W209R hDAAO is given as 4 fold.

Regarding “R120E: hDAAO variant with Arg120 substituted by glutamate (His-tagged from E. coli; EYFP-tagged in U87 cells)”, the Specific activity in series [1] came out at 21.0 U/mg protein. For the same compound, in the series on U87 glioblastoma cells (24 h after transfection), the “hDAAO cellular distribution: A, large cytosolic aggregates detected” value is recorded as 29.7 % of transfected cells; the “hDAAO cellular distribution: C, cytosol” value was 86.7 % of transfected cells; the “hDAAO cellular distribution: C/P, mixed, cytosol and peroxisomes” value (from here on “hDAAO cellular distribution: C/P, mixed”) is 7.8 % of transfected cells; the “hDAAO cellular distribution: N, nucleus” value is 36.7 % of transfected cells. In the series on U87 glioblastoma cells (24 h after transfection), the “hDAAO cellular distribution: P, peroxisomes” value (from here on “hDAAO cellular distribution: P”) is reported as 6.3 % of transfected cells. In the series with U87 glioblastoma cells (48 h after transfection), the “hDAAO cellular distribution: A, large cytosolic aggregates detected” value is reported as 31.3 % of transfected cells; the “hDAAO cellular distribution: C, cytosol” value is 56.7 % of transfected cells; the “hDAAO cellular distribution: C/P, mixed” value is on record as 14.9 % of transfected cells; the “hDAAO cellular distribution: N, nucleus” value was 27.6 % of transfected cells. Further, in the series with U87 glioblastoma cells (48 h after transfection), the “hDAAO cellular distribution: P” value was 28.4 % of transfected cells. Besides, in the series with U87 glioblastoma cells (72 h after transfection), the “hDAAO cellular distribution: A, large cytosolic aggregates detected” value is 18.2 % of transfected cells; the “hDAAO cellular distribution: C, cytosol” value is listed as 40.3 % of transfected cells; the “hDAAO cellular distribution: C/P, mixed” value is 18.2 % of transfected cells; the “hDAAO cellular distribution: N, nucleus” value is 24.0 % of transfected cells. Further, the “hDAAO cellular distribution: P” value in the series on U87 glioblastoma cells (72 h after transfection) was 41.6 % of transfected cells.

In turn, “R120L: hDAAO variant with Arg120 substituted by leucine (His-tagged from E. coli; EYFP-tagged in U87 cells)” displayed a Specific activity in series [1] of 17.6 U/mg protein. In the series on U87 glioblastoma cells (24 h after transfection), the “hDAAO cellular distribution: A, large cytosolic aggregates detected” value is listed as 41.5 % of transfected cells; the “hDAAO cellular distribution: C, cytosol” value is recorded as 93.1 % of transfected cells; the “hDAAO cellular distribution: C/P, mixed” value is given as 3.8 % of transfected cells; the “hDAAO cellular distribution: N, nucleus” value is recorded as 20.8 % of transfected cells. For the same compound, the “hDAAO cellular distribution: P” value with U87 glioblastoma cells (24 h after transfection) is listed as 3.1 % of transfected cells. Also, in the series on U87 glioblastoma cells (48 h after transfection), the “hDAAO cellular distribution: A, large cytosolic aggregates detected” value is reported as 22.6 % of transfected cells; the “hDAAO cellular distribution: C, cytosol” value is 59.7 % of transfected cells; the “hDAAO cellular distribution: C/P, mixed” value is 21.0 % of transfected cells; the “hDAAO cellular distribution: N, nucleus” value is 20.2 % of transfected cells. Besides, the “hDAAO cellular distribution: P” value in the series with U87 glioblastoma cells (48 h after transfection) was 19.4 % of transfected cells. Further, in the series on U87 glioblastoma cells (72 h after transfection), the “hDAAO cellular distribution: A, large cytosolic aggregates detected” value is 35.6 % of transfected cells; the “hDAAO cellular distribution: C, cytosol” value is 45.5 % of transfected cells; the “hDAAO cellular distribution: C/P, mixed” value was 21.2 % of transfected cells; the “hDAAO cellular distribution: N, nucleus” value is given as 13.1 % of transfected cells. For the same compound, the “hDAAO cellular distribution: P” value in the series with U87 glioblastoma cells (72 h after transfection) is 34.3 % of transfected cells.

“Wild-type: recombinant wild-type human D-amino acid oxidase (His-tagged from E. coli; EYFP-tagged in U87 cells)”: in the series on U87 glioblastoma cells (24 h after transfection), the “hDAAO cellular distribution: A, large cytosolic aggregates detected” value is on record as 18.7 % of transfected cells; the “hDAAO cellular distribution: C, cytosol” value was 69.4 % of transfected cells; the “hDAAO cellular distribution: C/P, mixed” value was 13.4 % of transfected cells; the “hDAAO cellular distribution: N, nucleus” value is on record as 14.4 % of transfected cells. The “hDAAO cellular distribution: P” value in the series on U87 glioblastoma cells (24 h after transfection) is listed as 17.2 % of transfected cells. Also, in the series on U87 glioblastoma cells (48 h after transfection), the “hDAAO cellular distribution: A, large cytosolic aggregates detected” value is recorded as 15.4 % of transfected cells; the “hDAAO cellular distribution: C, cytosol” value was 21.2 % of transfected cells; the “hDAAO cellular distribution: C/P, mixed” value was 26.9 % of transfected cells; the “hDAAO cellular distribution: N, nucleus” value was 9.6 % of transfected cells. Besides, in the series with U87 glioblastoma cells (48 h after transfection), the “hDAAO cellular distribution: P” value is given as 51.9 % of transfected cells. In the series on U87 glioblastoma cells (72 h after transfection), the “cytosolic signal” value came to 28%; the “hDAAO cellular distribution: A, large cytosolic aggregates detected” value is 5.6 % of transfected cells; the “hDAAO cellular distribution: C, cytosol” value is recorded as 10.4 % of transfected cells; the “hDAAO cellular distribution: C/P, mixed” value is recorded as 18.4 % of transfected cells. In the series with U87 glioblastoma cells (72 h after transfection), the “hDAAO cellular distribution: N, nucleus” value is recorded as 4.0 % of transfected cells and the “hDAAO cellular distribution: P” value was 71.2 % of transfected cells. For the same compound, in series [2], the Specific activity is 12.0 U/mg protein.

The record behind these values is publication PMC6862323, “Substitution of Arginine 120 in Human D-Amino Acid Oxidase Favors FAD-Binding and Nuclear Mistargeting” (Frontiers in Molecular Biosciences, 2019).
